Test results from US20230085307A1, “PYRIDAZINONE COMPOUND AND HERBICIDE” (NISSAN CHEMICAL CORPORATION, priority 2019, published 2023).

Key:
late watergrass = test: Test Example 1: herbicidal activity, application before weed generation under submerged conditions (Table 16, symbol A); format: in vivo, late watergrass (Echinochloa oryzicola); conditions: amount of applied herbicide 320 g/ha
Method in brief: (§1)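 Alluvial soil was flooded to 4 cm depth, weed seeds were sown mixed and 2.5-leaf rice seedlings were transplanted. On sowing day, the compound's emulsion, diluted in water to a set dose, was applied to the water surface. Plants grew at 25–30 °C and were scored 0–5 after three weeks.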

Japanese bulrush = test: Test Example 1: herbicidal activity, application before weed generation under submerged conditions (Table 16, symbol B); format: in vivo, Japanese bulrush (Schoenoplectus juncoides); conditions: amount of applied herbicide 320 g/ha
Method in brief: as §1

oval-leafed pondweed = test: Test Example 1: herbicidal activity, application before weed generation under submerged conditions (Table 16, symbol C); format: in vivo, oval-leafed pondweed (Monochoria vaginalis); conditions: amount of applied herbicide 320 g/ha
Method in brief: as §1

barnyard grass [1] = test: Test Example 3: herbicidal effect by foliage application, Wagner pot (Table 18, symbol H); format: in vivo, barnyard grass (Echinochloa crus-galli)
Method in brief: (§2)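 Plants were sown in alluvial soil held under 0.1–0.5 cm standing water and grown 14 days in a greenhouse at 25–30 °C. An emulsifiable formulation, water-diluted to the set dose, was then sprayed onto the foliage, and effects were scored three weeks later using previously defined criteria.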

Chinese sprangletop = test: Test Example 3: herbicidal effect by foliage application, Wagner pot (Table 18, symbol D); format: in vivo, chinese sprangletop (Leptochloa chinensis)
Method in brief: as §2

rice flat sedge = test: Test Example 3: herbicidal effect by foliage application, Wagner pot (Table 18, symbol E); format: in vivo, rice flat sedge (Cyperus iria)
Method in brief: as §2

southern crabgrass [2] = test: Test Example 4: herbicidal effect by soil treatment (Table 19, symbol F); format: in vivo, southern crabgrass (Digitaria ciliaris); conditions: amount of applied herbicide 320 g/ha
Method in brief: (§3)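 Step 1: sow seeds in sterilized diluvial soil, cover ~1.5 cm. Step 2: spray diluted emulsion onto soil surface at predetermined rate. Step 3: greenhouse, 25–30° C, three weeks. Step 4: grade effect on each plant by earlier criteria.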

green foxtail [3] = test: Test Example 4: herbicidal effect by soil treatment (Table 19, symbol G); format: in vivo, green foxtail (Setaria viridis); conditions: amount of applied herbicide 320 g/ha
Method in brief: as §3

barnyard grass [4] = test: Test Example 4: herbicidal effect by soil treatment (Table 19, symbol H); format: in vivo, barnyard grass (Echinochloa crus-galli); conditions: amount of applied herbicide 320 g/ha
Method in brief: as §3

wild oat [5] = test: Test Example 4: herbicidal effect by soil treatment (Table 19, symbol I); format: in vivo, wild oat (Avena fatua); conditions: amount of applied herbicide 320 g/ha
Method in brief: as §3

blackgrass [6] = test: Test Example 4: herbicidal effect by soil treatment (Table 19, symbol J); format: in vivo, blackgrass (Alopecurus myosuroides); conditions: amount of applied herbicide 320 g/ha
Method in brief: as §3

Italian ryegrass [7] = test: Test Example 4: herbicidal effect by soil treatment (Table 19, symbol K); format: in vivo, Italian ryegrass (Lolium multiflorum); conditions: amount of applied herbicide 320 g/ha
Method in brief: as §3

windgrass [8] = test: Test Example 4: herbicidal effect by soil treatment (Table 19, symbol L); format: in vivo, windgrass (Apera spica-venti); conditions: amount of applied herbicide 320 g/ha
Method in brief: as §3

velvetleaf [9] = test: Test Example 4: herbicidal effect by soil treatment (Table 19, symbol M); format: in vivo, velvetleaf (Abutilon theophrasti); conditions: amount of applied herbicide 320 g/ha
Method in brief: as §3

redroot pigweed = test: Test Example 4: herbicidal effect by soil treatment (Table 19, symbol N); format: in vivo, redroot pigweed (Amaranthus retroflexus); conditions: amount of applied herbicide 320 g/ha
Method in brief: as §3

lambsquarters [10] = test: Test Example 4: herbicidal effect by soil treatment (Table 19, symbol O); format: in vivo, lambsquarters (Chenopodium album); conditions: amount of applied herbicide 320 g/ha
Method in brief: as §3

chickweed = test: Test Example 4: herbicidal effect by soil treatment (Table 19, symbol P); format: in vivo, common chickweed (Stellaria media); conditions: amount of applied herbicide 320 g/ha
Method in brief: as §3

persian speedwell [11] = test: Test Example 4: herbicidal effect by soil treatment (Table 19, symbol R); format: in vivo, Persian speedwell (Veronica persica); conditions: amount of applied herbicide 320 g/ha
Method in brief: as §3

southern crabgrass [12] = test: Test Example 5: herbicidal effect by foliage application, plastic box (Table 20, symbol F); format: in vivo, southern crabgrass (Digitaria ciliaris); conditions: foliage application, 320 g/ha, three weeks after application
Method in brief: (§4)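 Foliar spray test: emulsion formulation diluted in water to a set application rate, sprayed onto 14-day-old plants raised in diluvial soil at 25° C to 30° C under glass. Both herbicidal effect and crop effect rated visually three weeks later.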

green foxtail [13] = test: Test Example 5: herbicidal effect by foliage application, plastic box (Table 20, symbol G); format: in vivo, green foxtail (Setaria viridis); conditions: foliage application, 320 g/ha, three weeks after application
Method in brief: as §4

barnyard grass [14] = test: Test Example 5: herbicidal effect by foliage application, plastic box (Table 20, symbol H); format: in vivo, barnyard grass (Echinochloa crus-galli); conditions: foliage application, 320 g/ha, three weeks after application
Method in brief: as §4

wild oat [15] = test: Test Example 5: herbicidal effect by foliage application, plastic box (Table 20, symbol I); format: in vivo, wild oat (Avena fatua); conditions: foliage application, 320 g/ha, three weeks after application
Method in brief: as §4

blackgrass [16] = test: Test Example 5: herbicidal effect by foliage application, plastic box (Table 20, symbol J); format: in vivo, blackgrass (Alopecurus myosuroides); conditions: foliage application, 320 g/ha, three weeks after application
Method in brief: as §4

Italian ryegrass [17] = test: Test Example 5: herbicidal effect by foliage application, plastic box (Table 20, symbol K); format: in vivo, Italian ryegrass (Lolium multiflorum); conditions: foliage application, 320 g/ha, three weeks after application
Method in brief: as §4

windgrass [18] = test: Test Example 5: herbicidal effect by foliage application, plastic box (Table 20, symbol L); format: in vivo, windgrass (Apera spica-venti); conditions: foliage application, 320 g/ha, three weeks after application
Method in brief: as §4

velvetleaf [19] = test: Test Example 5: herbicidal effect by foliage application, plastic box (Table 20, symbol M); format: in vivo, velvetleaf (Abutilon theophrasti); conditions: foliage application, 320 g/ha, three weeks after application
Method in brief: as §4

lambsquarters [20] = test: Test Example 5: herbicidal effect by foliage application, plastic box (Table 20, symbol O); format: in vivo, lambsquarters (Chenopodium album); conditions: foliage application, 320 g/ha, three weeks after application
Method in brief: as §4

persian speedwell [21] = test: Test Example 5: herbicidal effect by foliage application, plastic box (Table 20, symbol R); format: in vivo, Persian speedwell (Veronica persica); conditions: foliage application, 320 g/ha, three weeks after application
Method in brief: as §4

[22] = amount of applied herbicide 320 g/ha

Row | SMILES | Herbicidal effect, A: late watergrass (late watergrass) | Herbicidal effect, B: Japanese bulrush (Japanese bulrush) | Herbicidal effect, C: oval-leafed pondweed (oval-leafed pondweed) | F: southern crabgrass, herbicidal effect grade (southern crabgrass [2]) | G: green foxtail, herbicidal effect grade (green foxtail [3]) | H: barnyard grass, herbicidal effect grade (barnyard grass [4]) | I: wild oat, herbicidal effect grade (wild oat [5]) | J: blackgrass, herbicidal effect grade (blackgrass [6]) | K: Italian ryegrass, herbicidal effect grade (Italian ryegrass [7]) | L: windgrass, herbicidal effect grade (windgrass [8]) | M: velvetleaf, herbicidal effect grade (velvetleaf [9]) | N: redroot pigweed, herbicidal effect grade (redroot pigweed) | O: lambsquarters, herbicidal effect grade (lambsquarters [10]) | P: chickweed, herbicidal effect grade (chickweed) | R: persian speedwell, herbicidal effect grade (persian speedwell [11]) | herbicidal effect on southern crabgrass (F) (southern crabgrass [12]) | herbicidal effect on green foxtail (G) (green foxtail [13]) | herbicidal effect on barnyard grass (H) (barnyard grass [14]) | herbicidal effect on wild oat (I) (wild oat [15]) | herbicidal effect on blackgrass (J) (blackgrass [16]) | also measured
1 | CCOc1ccccc1-c1sc2cc(OC)c(Cl)cc2c1-c1c(O)c(C)nn(C)c1=O [5-072] | 0 (Herbicidal rate of 5% or less (almost no effect)) | 2 (Herbicidal rate of 20% or more and less than 40%) | 0 (Herbicidal rate of 5% or less (almost no effect)) | 5 (Herbicidal rate of 90% or more (almost completely withered)) | 4 (Herbicidal rate of 70% or more and less than 90%) | 1 (Herbicidal rate of 5% or more and less than 20%) | 0 (Herbicidal rate of 5% or less (almost no effect)) | 0 (Herbicidal rate of 5% or less (almost no effect)) | 0 (Herbicidal rate of 5% or less (almost no effect)) | 0 (Herbicidal rate of 5% or less (almost no effect)) | 1 (Herbicidal rate of 5% or more and less than 20%) | 3 (Herbicidal rate of 40% or more and less than 70%) | 3 (Herbicidal rate of 40% or more and less than 70%) | 2 (Herbicidal rate of 20% or more and less than 40%) | 3 (Herbicidal rate of 40% or more and less than 70%) | 5 (Herbicidal rate of 90% or more (almost completely withered)) | 5 (Herbicidal rate of 90% or more (almost completely withered)) | 5 (Herbicidal rate of 90% or more (almost completely withered)) | 2 (Herbicidal rate of 20% or more and less than 40%) | 3 (Herbicidal rate of 40% or more and less than 70%) | herbicidal effect on barnyard grass (H) (barnyard grass [1]; 320 g/ha): 5 (Herbicidal rate of 90% or more (almost completely withered)); herbicidal effect on Chinese sprangletop (D) (Chinese sprangletop; 320 g/ha): 3 (Herbicidal rate of 40% or more and less than 70%); herbicidal effect on rice flat sedge (E) (rice flat sedge; 320 g/ha): 5 (Herbicidal rate of 90% or more (almost completely withered)); herbicidal effect on Italian ryegrass (K) (Italian ryegrass [17]): 0 (Herbicidal rate of 5% or less (almost no effect)); herbicidal effect on windgrass (L) (windgrass [18]): 5 (Herbicidal rate of 90% or more (almost completely withered)); herbicidal effect on velvetleaf (M) (velvetleaf [19]): 5 (Herbicidal rate of 90% or more (almost completely withered)); herbicidal effect on lambsquarters (O) (lambsquarters [20]): 4 (Herbicidal rate of 70% or more and less than 90%); herbicidal effect on persian speedwell (R) (persian speedwell [21]): 5 (Herbicidal rate of 90% or more (almost completely withered))
2 | COc1ccccc1-c1oc2ccc(F)cc2c1-c1c(O)c(C)nn(C)c1=O [9-019] | 3 (Herbicidal rate of 40% or more and less than 70%) | 0 (Herbicidal rate of 5% or less (almost no effect)) | 0 (Herbicidal rate of 5% or less (almost no effect)) | 0 (Herbicidal rate of 5% or less (almost no effect)) | 0 (Herbicidal rate of 5% or less (almost no effect)) | 0 (Herbicidal rate of 5% or less (almost no effect)) | 0 (Herbicidal rate of 5% or less (almost no effect)) | 0 (Herbicidal rate of 5% or less (almost no effect)) | 1 (Herbicidal rate of 5% or more and less than 20%) | 0 (Herbicidal rate of 5% or less (almost no effect)) | 0 (Herbicidal rate of 5% or less (almost no effect)) | 2 (Herbicidal rate of 20% or more and less than 40%) | 1 (Herbicidal rate of 5% or more and less than 20%) | 0 (Herbicidal rate of 5% or less (almost no effect)) | 0 (Herbicidal rate of 5% or less (almost no effect)) | 0 (Herbicidal rate of 5% or less (almost no effect)) | 0 (Herbicidal rate of 5% or less (almost no effect)) | 0 (Herbicidal rate of 5% or less (almost no effect)) | 0 (Herbicidal rate of 5% or less (almost no effect)) | 0 (Herbicidal rate of 5% or less (almost no effect)) | Herbicidal effect on H (barnyard grass), foliage application (barnyard grass [1]; [22]): 4 (Herbicidal rate of 70% or more and less than 90%); Herbicidal effect on D (Chinese sprangletop), foliage application (Chinese sprangletop; [22]): 4 (Herbicidal rate of 70% or more and less than 90%); Herbicidal effect on E (rice flat sedge), foliage application (rice flat sedge; [22]): 4 (Herbicidal rate of 70% or more and less than 90%); herbicidal effect on Italian ryegrass (K) (Italian ryegrass [17]): 0 (Herbicidal rate of 5% or less (almost no effect)); herbicidal effect on windgrass (L) (windgrass [18]): 0 (Herbicidal rate of 5% or less (almost no effect)); herbicidal effect on velvetleaf (M) (velvetleaf [19]): 0 (Herbicidal rate of 5% or less (almost no effect)); herbicidal effect on lambsquarters (O) (lambsquarters [20]): 0 (Herbicidal rate of 5% or less (almost no effect)); herbicidal effect on persian speedwell (R) (persian speedwell [21]): 4 (Herbicidal rate of 70% or more and less than 90%)
